Results taken from US20210308319A1, “TRANSITION TO TRANSLUCENT SUTURES” (University of Pittsburgh - Of the Commonwealth System of …, priority 2018, published 2021).

Test: UV-Vis spectroscopy of the rate of dissolution of dyes in water
Type: physicochemical
Conditions: excess dye in cuvette, 320-800 nm, 0 to 10 minutes
Method: An excess mass of both crystal violet and violet stearate was added to separate, clean polystyrene cuvettes. The spectrometer was calibrated to measure absorbance over the range of 320-800 nm. A background UV-Vis spectrum was then collected using a clean cuvette filled with distilled water (this spectrum is later subtracted from the dye solution spectrums to give the absorbance resulting from the dye only). The dye containing cuvettes were then loaded into the UV-Vis spectrometer. Water was then carefully syringed down the side of the first cuvette until the cuvettes were filled, and the spectrum immediately collected upon addition. […] The 20 minutes spectra are not included due to the fact they are very similar to the 10 minute spectra for both dyes tested.

SMILES	Change of UV-Vis absorbance spectra over time after addition of water (rate of dissolution)
CCCCCCCCCCCCCCCCCC(=O)[O-].CN(C)c1ccc(C(=C2C=CC(=[N+](C)C)C=C2)c2ccc(N(C)C)cc2)cc1 [Violet Stearate]	definite increase in absorbance over time
CN(C)c1ccc(C(=C2C=CC(=[N+](C)C)C=C2)c2ccc(N(C)C)cc2)cc1 [Crystal Violet, crystal violet]	do not change over time at all
